In patent US7119091B2, “Triazaspiro[5.5]undecane derivatives and pharmaceutical compositions comprising thereof, as an active ingredient” (Ono Pharmaceutical Co., Ltd., priority 1999, dated 2006) one finds IC50 data, which are given here for three compounds.

Where a name gives a salt, the structure may show the parent alone.

Assay [1] concerns the target human CCR5 stably over-expressing CHO cell (CCR5/CHO cell) (Homo sapiens, UniProt P51681). Nature of the assay: Inhibition test on the binding of RANTES to CCR5 (RANTES-induced transient increase of Ca ion). Type of assay: cell-based. The following applies: inhibition of Ca2+ transient increase induced by 10 nM recombinant human RANTES in CCR5/CHO cells.
Experimental: (1) Isolation of Human CCR5 Gene
Human placental cDNA was prepared using Marathon cDNA amplification kit (Clontech). PCR primers hCCR5XbaI-F1: 5′-[sequence]-3′ (SEQ ID NO:1) and hCCR5XbaI-R1: 5′-[sequence]-3′ (SEQ ID NO:2) were designed based on the sequence of GenBank U54994.
Using the human placental cDNA as the template and using Ex Taq (Takara), PCR reaction (2 minutes at 95° C.→(30 seconds at 95° C., 45 seconds at 60° C., 1 minute at 72° C.)×35 times) was carried out. The thus amplified PCR product was subjected to a 1% agarose gel electrophoresis, purified using QIAquick Gel Extraction Kit (QUIAGEN) and then digested with a restriction enzyme XbaI. […] By preparing the resulting plasmid pEF-BOS-bsr/hCCR5, its DNA sequence was verified. […]
The thus established human CCR5 stably over-expressing CHO cell (CCR5/CHO cell) was suspended in Ham's F-12 medium containing FBS (10%) and dispensed in 3.0×10^6 cells/well portions into a 96 well plate. […] Transient increase in the intracellular Ca^2+ concentration induced by the human RANTES was measured using a Ca^2+ detector for 96 well use (Hamamatsu Photonics), and inhibition ratio (%) of the test compound was calculated by the following calculation formula. Inhibition ratio=(Ec−Ea)/Ec×100 • Ec: measured value of Ca^2+ transient increase by RANTES • Ea: measured value of Ca^2+ transient increase by RANTES when a test compound was added
The target of assay [2] is T1, human CCR2-expressing cell, human monocyte cell strain THP-1 (Homo sapiens, UniProt P41597).
T1 construct: A human CCR2-expressing cell, e.g., a human monocyte cell strain THP-1 (ATCC No. TIB-202); host or cells: THP-1
T1 sequence (P41597 1-360 isoform P41597-2): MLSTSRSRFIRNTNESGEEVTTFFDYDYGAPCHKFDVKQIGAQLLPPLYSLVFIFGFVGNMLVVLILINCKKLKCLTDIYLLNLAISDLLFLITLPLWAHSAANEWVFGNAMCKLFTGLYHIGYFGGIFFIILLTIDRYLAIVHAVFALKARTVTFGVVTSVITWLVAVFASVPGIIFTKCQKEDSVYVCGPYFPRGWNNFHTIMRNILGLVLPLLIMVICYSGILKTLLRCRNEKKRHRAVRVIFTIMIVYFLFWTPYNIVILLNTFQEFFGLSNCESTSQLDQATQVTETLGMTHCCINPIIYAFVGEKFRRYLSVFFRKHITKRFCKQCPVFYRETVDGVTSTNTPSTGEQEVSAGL
Briefly: Inhibition test on the binding of MCP-1 to CCR2 (MCP-1-induced transient increase of Ca ion). In kind it is cell-based. The following applies: inhibition of Ca2+ transient increase induced by 30 nM recombinant human MCP-1 in THP-1 cells. The source says:
An assay system for finding a compound having adsorption inhibition effect on CCR5 directional HIV strain was described in the foregoing, and it is possible as a matter of course to find a compound capable of inhibiting the activity of CCR5 or a ligand thereof using this system. In the same manner, it is possible to find a compound capable of inhibiting the activity of other chemokine receptor or a ligand thereof. For example, a system for finding a compound capable of inhibiting the activity of CCR2 or a ligand thereof can be constructed. […]
A human CCR2-expressing cell, e.g., a human monocyte cell strain THP-1 (ATCC No. TIB-202), was suspended in RPMI 1640 medium containing FBS (10%), Fura-2AM (5 μM), Probenecid (2.5 mM) and HEPES (20 mM, pH 7.4) to a density of 5.0×10^6 cells/ml and incubated at 37° C. for 30 minutes under shaded condition. […] Transient increase in the intracellular Ca 2+concentration induced by the human MCP-1 was measured using a Ca^2+ detector for 96 well use (Hamamatsu Photonics), and inhibition ratio (%) of the test compound was calculated by the following calculation formula. Inhibition ratio=(Ec−Ea)/Ec×100 • Ec: measured value of Ca^2+ transient increase by MCP-1 • Ea: measured value of Ca^2+ transient increase by MCP-1 when a test compound was added

Sequence of human CCR5 stably over-expressing CHO cell (CCR5/CHO cell) (P51681 whole entry): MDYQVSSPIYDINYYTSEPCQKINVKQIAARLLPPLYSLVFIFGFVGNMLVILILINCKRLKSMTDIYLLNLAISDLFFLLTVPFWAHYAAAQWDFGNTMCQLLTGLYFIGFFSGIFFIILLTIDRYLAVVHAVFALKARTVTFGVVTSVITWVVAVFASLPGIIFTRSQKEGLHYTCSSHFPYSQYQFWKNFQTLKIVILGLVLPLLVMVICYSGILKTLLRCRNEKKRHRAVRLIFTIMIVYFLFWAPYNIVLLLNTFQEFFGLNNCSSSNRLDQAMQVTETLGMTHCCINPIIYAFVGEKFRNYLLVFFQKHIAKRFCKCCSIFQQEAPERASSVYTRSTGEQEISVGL

For the compound `CCCCN1C(=O)C(CC2CCCCC2)NC(=O)C12CCN(Cc1ccc3c(c1)OCCO3)CC2` (stereo not drawn) [Example 2(1), 9-(1,4-benzodioxan-6-ylmethyl)-1-butyl-3-cyclohexylmethyl-2,5-dioxo-1,4,9-triazaspiro[5.5]undecane.hydrochloride], the half-inhibitory concentration (IC50) in assay [1] came out at 50 nM. For `CCCCN1C(=O)C(CC2CCCCC2)NC(=O)C12CCN(Cc1c[nH]c(-c3ccccc3)n1)CC2` (stereo not drawn) [Example 2(2), 1-butyl-3-cyclohexylmethyl-2,5-dioxo-9-(2-phenylimidazol-4-ylmethyl)-1,4,9-triazaspiro[5.5]undecane.2 hydrochloride], the IC50 in assay [1] came out at 50 nM.

Take `CCCN1C(=O)[C@H](CCCCNC(=O)OCc2ccccc2)NC(=O)C12CCN(CCc1ccccc1)CC2` [Example 5(2), (3S)-1-propyl-2,5-dioxo-3-(4-(N-benzyloxycarbonyl)aminobutyl)-9-(2-phenylethyl)-1,4,9-triazaspiro[5.5]undecane.hydrochloride]: the 50% inhibitory concentration (IC50) in assay [2] is 3000 nM.

In general, IC50 refers to the concentration that gives 50% inhibition.
